These results are taken from patent US9127018B2, “Solid forms of ortataxel” (Indena S.p.A., priority 2008, dated 2015).

This data set can be described thus: physical and chemical stability of the solid form. In kind it is physicochemical. The conditions noted are these: solid form prepared with traces of an organic acid (citric acid); storage conditions not given.

As for `CC(=O)O[C@H]1C(=O)[C@@]2(C)[C@H]([C@H](OC(=O)c3ccccc3)[C@]34OC(=O)O[C@H]3[C@H](OC(=O)[C@H](O)[C@H](CC(C)C)NC(=O)OC(C)(C)C)C(C)=C1C4(C)C)[C@]1(OC(C)=O)CO[C@@H]1C[C@@H]2O` [Form A, 13-(N-Boc-β-isobutylserinyl)-14-β-hydroxybaccatin III 1, 14-carbonate], the “chemical and physical stability” value is reported as “at least 36 months”.
